Values of other authors in patent US5869538A, “Method for enhancing transport of gases to tissues” (priority 1996, dated 1999).

Conditions: for Diffusivities / Solubilities: Table 2, simulation parameter

Diffusivities | Solubilities [mlml^-1 100 kPa^-1] | N2O solubility [ml N2 O /ml blood/atm] | SMILES
1.05 × 10^-3 cm^2 /min | 2.35 |  | O=C=O [CO2, carbon dioxide]
1.32 × 10^-3 cm^2 /min |  |  | N#N [N2, nitrogen]
 |  | 0.45 | [N-]=[N+]=O [N2O, reference compound]
1.24 × 10^-3 cm^2 /min | 0.0227 |  | O=O [O2, oxygen]
